Laboratory results: paper PMC10573062, “Synthesis, Structural Characterization, Cytotoxicity, and Protein/DNA Binding Properties of Pyridoxylidene-Aminoguanidine-Metal (Fe, Co, Zn, Cu) Complexes” (International Journal of Molecular Sciences, 2023)

What was measured:
HCT116 cell lines = tested on: HCT116 cell lines; set-up: method as in PMID 30798514; conditions: previous study; cited from earlier work
[1] = Qualitative solubility in solvents; format: physicochemical
[2] = biological target: T1, bovine serum albumin (BSA) (Bos taurus, UniProt P02769); assay: Spectrofluorometric titration of BSA (fluorescence quenching, double log Stern–Volmer, van't Hoff); format: binding; conditions: for ΔHb / ΔSb: van't Hoff over three temperatures
T1 construct: purchased
T1 sequence (P02769 25-607): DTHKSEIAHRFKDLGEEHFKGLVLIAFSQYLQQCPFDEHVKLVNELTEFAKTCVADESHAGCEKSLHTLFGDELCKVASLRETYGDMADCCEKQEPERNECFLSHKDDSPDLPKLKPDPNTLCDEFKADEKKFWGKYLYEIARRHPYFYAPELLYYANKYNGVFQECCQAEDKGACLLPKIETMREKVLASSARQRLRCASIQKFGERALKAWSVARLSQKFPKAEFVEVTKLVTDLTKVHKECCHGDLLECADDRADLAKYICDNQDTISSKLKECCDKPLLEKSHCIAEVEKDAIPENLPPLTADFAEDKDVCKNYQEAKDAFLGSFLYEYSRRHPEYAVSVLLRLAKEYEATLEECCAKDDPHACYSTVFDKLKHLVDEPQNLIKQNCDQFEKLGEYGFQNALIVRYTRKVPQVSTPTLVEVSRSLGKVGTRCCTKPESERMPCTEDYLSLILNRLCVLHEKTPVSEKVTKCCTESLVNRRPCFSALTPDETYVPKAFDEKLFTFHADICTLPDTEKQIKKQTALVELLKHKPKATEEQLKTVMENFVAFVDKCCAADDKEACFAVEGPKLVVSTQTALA
Method: (§1) The protein binding affinity of obtained compounds was analyzed by the spectrofluorometric titration of BSA and HSA solution by the solution containing obtained compounds. The mixture was irradiated by light with a wavelength of 295 (BSA) and 280 nm (HSA). Both proteins contain fluorescent amino acids within active pockets, and the binding process can be monitored through the change in intensity and position of the emitted light maxima. The fluorescent emission depends on the chemical environment of amino acids. The measurements for each complex were repeated at three temperatures to allow the determination of the thermodynamic parameters of binding.
(§2) The spectrofluorometric measurements were used to investigate the binding process of obtained compounds towards bovine serum albumin (BSA) and human serum albumin (HSA) on the Cary Eclipse MY2048CH03 instrument. The scan rate was 600 nm min^−1, and both slits were 5 nm. The excitation wavelengths were 295 nm and 280 nm for BSA and HSA, respectively. These energies are characteristics of the protein structure’s tryptophan and other fluorescent amino acid residues. The emission spectra were recorded between 310 and 500 nm. The concentration of proteins was held constant at 5 × 10^−6 M in […] phosphate buffer saline (pH = 7.4). The concentration of complexes changed from 1 to 10 × 10^−6 M, and the emission spectrum was recorded two minutes after the addition of compounds. The data were analyzed by the double log Stern–Volmer quenching equation (Equation (2)):(2) logI0−I/I=logKb+nlogQ
In the previous equation, I0 and I are the fluorescent emission intensities of BSA/HSA without and with added metal complexes, respectively; Kb is the binding constant; n is the number of binding places; and [Q] is the concentration of quenchers (metal complexes). […]

MCF-7 breast cancer [3] = assay: CV (crystal-violet) viability assay, MCF-7; format: cell-based, human; conditions: MCF-7, CV, 72 h of treatment
Method: (§3) The following cell lines were used in this study: human cell lines (A375 melanoma, MCF-7 breast cancer, HCT116 colorectal carcinoma, and A2780 ovarian cancer. These cell lines were purchased from the American Type Culture Collection (Rockville, MD, USA). The A2780 cells were cultivated in DMEM, while all other cell lines were cultivated in the HEPES-buffered RPMI-1640 medium. The cell culture mediums were supplemented with penicillin (1000 units/mL), streptomycin (100 µg/mL), and 10% inactivated FBS. All cells were cultivated at 37 °C in a humidified atmosphere with 5% CO2.
(§4) Two colorimetric viability assays were applied, namely 3-(4,5-dimethylthiazol-2-yl)-2,5-diphenyl-2H-tetrazolium bromide (MTT) and crystal-violet (CV) (Sigma Aldrich, St. Louis, MO, USA), according to the previous studies. The cells were seeded overnight in 96-well plates: A2780 and MRC-5 8 × 10^3 cells/well, HCT 116 6 × 10^3 cells/well, A375 5 × 10^3 cells/well, and MCF-7 at 10 × 10^3 cells/well [67]. The standard solutions of complexes were prepared in DMSO. All cells were treated with the following concentrations of investigated compounds: 100, 50, 25, 12.5, 6.25, 3.125, and 1.56 µM. After 72 h of treatment, viability assays were conducted. For the CV assay, cells were fixed using 4% paraformaldehyde (PFA) for 20 min at room temperature after being washed once with PBS. Afterward, they were stained with 0.2% CV solution for 25 min. This procedure was followed by washing with double distilled water. The cells were left to dry overnight at room temperature. In the last step, 33% acetic acid was used to dissolve the remaining dye. The other test included incubating cells in MTT solution (0.5 mg L^−1 in cell culture medium) for […] at 37 °C in a humid environment with 5% CO2. After one hour, the MTT solution was discarded, and the formed formazan was dissolved using DMSO. A plate reader (Spectromax, Molecular Devices, San Jose, CA, USA) was utilized for the absorption measurements at 570 and 670 (background) nm. The cell viability was calculated as the percentage compared to untreated cells, and the mean was obtained using a four-parametric logistic function. Each of the three independent experiments was performed in quadruplicate.

A2780 ovarian cancer [4] = assay: CV (crystal-violet) viability assay, A2780; format: cell-based, human; conditions: 72 h of treatment
Method: as §3, §4

MCF-7 breast cancer [5] = assay: MTT viability assay, MCF-7; format: cell-based, human; conditions: MCF-7, MTT, 72 h of treatment
Method: as §3, §4

[6] = tested on: HCT116 colorectal carcinoma; assay: CV (crystal-violet) viability assay, HCT116; format: cell-based, human; conditions: 72 h of treatment
Method: as §3, §4

[7] = tested on: HCT116 colorectal carcinoma; assay: MTT viability assay, HCT116; format: cell-based, human; conditions: 72 h of treatment
Method: as §3, §4

[8] = biological target: T2, human serum albumin (HSA) (Homo sapiens, UniProt P02768); assay: Spectrofluorometric titration of HSA (fluorescence quenching, double log Stern–Volmer, van't Hoff); format: binding; conditions: for ΔHb / ΔSb: van't Hoff over three temperatures
T2 construct: purchased
T2 sequence (P02768 25-609): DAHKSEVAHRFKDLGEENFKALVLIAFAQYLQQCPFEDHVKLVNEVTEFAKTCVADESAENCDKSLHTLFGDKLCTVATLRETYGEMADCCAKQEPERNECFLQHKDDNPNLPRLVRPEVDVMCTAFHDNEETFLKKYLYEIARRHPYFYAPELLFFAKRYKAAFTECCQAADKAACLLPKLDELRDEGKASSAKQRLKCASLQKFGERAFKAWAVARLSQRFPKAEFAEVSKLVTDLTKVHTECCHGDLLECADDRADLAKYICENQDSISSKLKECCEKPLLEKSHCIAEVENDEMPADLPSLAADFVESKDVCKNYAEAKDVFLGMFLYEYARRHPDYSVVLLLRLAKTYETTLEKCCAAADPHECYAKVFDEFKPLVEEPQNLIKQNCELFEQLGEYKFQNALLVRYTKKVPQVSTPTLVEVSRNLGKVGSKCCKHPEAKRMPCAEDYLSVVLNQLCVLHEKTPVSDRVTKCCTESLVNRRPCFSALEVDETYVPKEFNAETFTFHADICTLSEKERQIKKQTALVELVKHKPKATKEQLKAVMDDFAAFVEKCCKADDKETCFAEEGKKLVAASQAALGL
Method: as §1
The binding affinity of obtained complexes was also examined towards HSA as a transport protein relevant to the human body. The temperature range was changed to reflect better temperatures common for humans (32–42 °C). The representative example of the HAS fluorescence measurements is shown in Figure 9, along with van’t Hoff’s plot. The decrease in the fluorescence intensity emission was also dependent on the concentration of complexes. On average, the binding constants were similar to the ones calculated for BSA. […] High correlation coefficients, between 0.990 and 0.998, were calculated for the dependency described by Equation (2). The number of binding places is 1, proving that the same type of complexes were formed between investigated compounds and HAS as previously shown for BSA.
as §2
In the previous equation, I0 and I are the fluorescent emission intensities of BSA/HSA without and with added metal complexes, respectively; Kb is the binding constant; n is the number of binding places; and [Q] is the concentration of quenchers (metal complexes).
The changes in enthalpy and entropy of the binding process were determined from the vant’t Hoff equation (Equation (3)) following the measurements at three temperatures (27, 32, and 37 °C):(3) lnKb=−∆Hb/RT+∆Sb/R

A2780 ovarian cancer [9] = assay: MTT viability assay, A2780; format: cell-based, human; conditions: 72 h of treatment
Method: as §3, §4

A375 melanoma [10] = assay: CV (crystal-violet) viability assay, A375; format: cell-based, human; conditions: 72 h of treatment
Method: as §3
as §4, with “After one hour, the MTT solution was discarded, and the formed formazan was dissolved using DMSO.” left out, “Each of the three independent experiments was performed in quadruplicate.” left out

A375 melanoma [11] = assay: MTT viability assay, A375; format: cell-based, human; conditions: 72 h of treatment
Method: as §3
as §4, with “After one hour, the MTT solution was discarded, and the formed formazan was dissolved using DMSO.” left out, “Each of the three independent experiments was performed in quadruplicate.” left out

[12] = in chloroform, dimethylsulfoxide, dimethylformamide, acetone, and acetonitrile
[13] = in methanol, ethanol, phosphate buffer saline, and water

Molecule	solubility ([1]; in diethyl ether and toluene)	Kb (binding constant) ([2]; 27 °C) [M⁻¹]	n (number of binding places) ([2]; 27 °C)	ΔGb ([2]; 27 °C) [kJ/mol]	Kb (binding constant) ([2]; 32 °C) [M⁻¹]	n (number of binding places) ([2]; 32 °C)	ΔGb ([2]; 32 °C) [kJ/mol]	Kb (binding constant) ([2]; 35 °C) [M⁻¹]	n (number of binding places) ([2]; 35 °C)	ΔGb ([2]; 35 °C) [kJ/mol]	ΔHb [2] [kJ/mol]	ΔSb [2] [J mol^−1 K^−1]	IC50 (MCF-7 breast cancer [3]) [µM]	solubility [1, 12]	solubility [1, 13]	IC50 (A2780 ovarian cancer [4]) [µM]	IC50 (MCF-7 breast cancer [5]) [µM]	IC50 [6] [µM]	IC50 [7] [µM]	n (number of binding places) ([8]; 32 °C)	further results
O=S(=O)([O-])[O-].[Cu+2] [CuSO4]																					activity towards HCT116 cell line (HCT116 cell lines): almost completely inactive
Cu(PLAG)(NCS)2 [Cu-PLAG]	insoluble	9630	1.13	-22.52	89700	1.10	-29.65	1.82e+06	0.98	-36.77	404.98	1425.02	65.4 ± 4.8	soluble	moderately soluble	38.5 ± 2.1	48.3 ± 1.5	97.4 ± 3.7	81.5 ± 0.1	0.91	ΔGb ([8]; 32 °C): -22.47 kJ/mol; n (number of binding places) ([8]; 37 °C): 0.90; ΔGb ([8]; 37 °C): -24.94 kJ/mol; n (number of binding places) ([8]; 42 °C): 0.98; ΔGb ([8]; 42 °C): -27.42 kJ/mol; ΔHb [8]: 128.56 kJ/mol; ΔSb [8]: 495.17 J mol^−1 K^−1; IC50 (A2780 ovarian cancer [9]): 32.5 ± 2.6 µM
[Co(PLAG)2]SO4^.2H2O [Co-PLAG]	insoluble	18600	0.97	-24.51	20400	0.98	-25.19	22900	0.96	-25.86	16.01	135.08	> 100	soluble	moderately soluble	> 100	> 100	> 100	> 100	1.05	IC50 (A375 melanoma [10]): > 100 µM; IC50 (A375 melanoma [11]): > 100 µM; ΔGb ([8]; 32 °C): -23.34 kJ/mol; n (number of binding places) ([8]; 37 °C): 1.08; ΔGb ([8]; 37 °C): -28.29 kJ/mol; n (number of binding places) ([8]; 42 °C): 1.16; ΔGb ([8]; 42 °C): -33.24 kJ/mol; ΔHb [8]: 278.64 kJ/mol; ΔSb [8]: 990.11 J mol^−1 K^−1; IC50 (A2780 ovarian cancer [9]): > 100 µM

Continued, in another order:

solubility ([1]; in diethyl ether and toluene)	Kb (binding constant) ([2]; 27 °C) [M⁻¹]	n (number of binding places) ([2]; 27 °C)	ΔGb ([2]; 27 °C) [kJ/mol]	Kb (binding constant) ([2]; 32 °C) [M⁻¹]	n (number of binding places) ([2]; 32 °C)	ΔGb ([2]; 32 °C) [kJ/mol]	Kb (binding constant) ([2]; 35 °C) [M⁻¹]	n (number of binding places) ([2]; 35 °C)	ΔGb ([2]; 35 °C) [kJ/mol]	ΔHb [2] [kJ/mol]	ΔSb [2] [J mol^−1 K^−1]	IC50 (MCF-7 breast cancer [3]) [µM]	solubility [1, 12]	solubility [1, 13]	IC50 (A2780 ovarian cancer [4]) [µM]	IC50 (MCF-7 breast cancer [5]) [µM]	IC50 [6] [µM]	IC50 [7] [µM]	n (number of binding places) ([8]; 32 °C)	Molecule	further results
insoluble																				Cc1ncc(CO)c(/C=N/N=C(N)N)c1O [PLAG, Pyridoxylidene-aminoguanidine]	solubility ([1]; in MeOH and DMF): soluble; solubility ([1]; in methanol, ethanol, and water): moderately soluble
insoluble	31800	1.12	-25.82	83200	1.10	-28.82	234000	1.04	-31.82	154.38	600.66	> 100	soluble	moderately soluble	> 100	> 100	> 100	> 100	1.09	[Fe(PLAG)2]SO4^.2H2O [Fe-PLAG]	IC50 (A375 melanoma [10]): > 100 µM; IC50 (A375 melanoma [11]): > 100 µM; ΔGb ([8]; 32 °C): -21.26 kJ/mol; n (number of binding places) ([8]; 37 °C): 0.90; ΔGb ([8]; 37 °C): -27.81 kJ/mol; n (number of binding places) ([8]; 42 °C): 1.12; ΔGb ([8]; 42 °C): -34.36 kJ/mol; ΔHb [8]: 378.28 kJ/mol; ΔSb [8]: 1309.95 J mol^−1 K^−1; IC50 (A2780 ovarian cancer [9]): > 100 µM
insoluble	58000	1.13	-27.45	124000	1.09	-29.56	208000	1.03	-31.66	98.78	420.77	> 100	soluble	moderately soluble	> 100	> 100	> 100	> 100	1.11	[Zn(PLAG)(SO4)(H2O)]^.H2O [Zn-PLAG]	IC50 (A375 melanoma [10]): > 100 µM; IC50 (A375 melanoma [11]): > 100 µM; ΔGb ([8]; 32 °C): -28.65 kJ/mol; n (number of binding places) ([8]; 37 °C): 0.99; ΔGb ([8]; 37 °C): -28.86 kJ/mol; n (number of binding places) ([8]; 42 °C): 0.95; ΔGb ([8]; 42 °C): -29.07 kJ/mol; IC50 (A2780 ovarian cancer [9]): > 100 µM
